System: Influenza-Viren
Test: own studies in mice infected with influenza viruses (prophylaxis and therapy of virus infection, compound alone without vaccine)
Type: in vivo, Mäuse
Details: per se, i.e. without added vaccine
Excerpt: Aus der Französischen Patentanmeldung Nr. 74 22 909 mit der Publikationsnummer 2 292 486 sind Muramylpeptide vom Typ der Verbindung N-Acetyl-muramyl-L-alanyl-D-isoglutamin ("MDP") bekannt. Diese Verbindungen sind als immunologische Adjuvanzien beschrieben, d.h. sie können in Mischung mit Impfstoffen dazu benützt werden, den Impferfolg zu verbessern. Eigene Untersuchungen, z.B. bei mit Influenza-Viren infizierten Mäusen, haben ergeben, dass N-Acetyl-muramyl-L-alanyl-D-isoglutamin per se, d.h. ohne Beimengung von Impfstoffen, bei der Prophylaxe und Therapie von Virusinfektionen unwirksam ist. Auch ist die Verwendbarkeit strukturell einfacher Muramylpeptide und ihrer Analogen gegen Virusinfektionen bisher nicht beschrieben.

## CC(=O)N[C@H]1C(O)O[C@H](CO)[C@@H](O)[C@@H]1O[C@H](C)C(=O)N[C@@H](C)C(=O)N[C@H](CCC(=O)O)C(N)=O (stereo partly drawn) [N-Acetyl-muramyl-L-alanyl-D-isoglutamin]
  Wirksamkeit bei der Prophylaxe und Therapie von Virusinfektionen: unwirksam

Source: EP0192609A2, “Acylated hexose derivatives and method for their preparation” (CIBA-GEIGY AG, priority 1985, dated 1986)
